Reference: patent US4444690A, “Technetium chelates” (priority 1982, dated 1984)
“Also recorded” adds a separate entry of the source. Read-outs that look alike come from different tables or passages of the source.

Assays:
[1] = mice, mean of 6
Protocol: The time course of organ distribution was determined in groups of six Hal Cr female albino mice. They were injected with 0.10 ml (0.5 uCi) of the preparation. For comparison purposes, 0.2 uCi OIH was added to each injection. The mice were placed in metabolic cages for the collection of excreted urine. At indicated intervals after injection, the urethra was ligated and the mice killed with chloroform vapor.

[2] = Organ biodistribution time course of Tc-CO2-DADS components in mice (Table 1); format: in vivo, Hal Cr female albino mice; conditions: mice; for Blood / Intestines / Kidneys / Liver / Stomach / Urine: mean of 6; for renal excretion / clearance in words: comparison with OIH or component A
Protocol: The time course of organ distribution was determined in groups of six Hal Cr female albino mice. They were injected with 0.10 ml (0.5 uCi) of the preparation. For comparison purposes, 0.2 uCi OIH was added to each injection. The mice were placed in metabolic cages for the collection of excreted urine. At indicated intervals after injection, the urethra was ligated and the mice killed with chloroform vapor. The organs were removed and counted in a dual channel counter with correction for I-131 crossover into the Tc-99m channel.

[3] = Blood disappearance rates in rats (FIG. 3); format: in vivo, male Sprague-Dawley rats; conditions: rats; for blood disappearance in words: FIG. 3
Source text: These determinations were made in male Sprague-Dawley rats.

plasma proteins = assay: Plasma protein binding, ultrafiltration; format: in vitro ADME
Protocol: Studies of protein binding were carried out in plasma using an ultrafiltration method described at J.Nucl.Med. 22, 258-263, 1981.

[4] = for renal excretion (urine appearance) in words: rabbits, FIG. 4
Protocol: (§1) Organ biodistribution and acute toxicity studies were carried out in mice, blood disappearance and bile appearance rates were determined by sampling of bood or bile in rats, and renal excretion rates of the two Tc-2,3-bis(mercaptoacetamido)propanoic acid components, Tc-DTPA, and OIH were determined in rabbits because of greater ease of urine sampling. The HPLC-purified Tc-2,3-bis(mercaptoacetamido)propanoate components were used directly except for dilution as necessary. In general HPLC collected volumes were 1 to 1.5 ml and were not diluted for rabbit studies, were diluted 2- to 10-fold for rat studies and were diluted about 20-fold for mouse studies. In most cases determinations were made with simultaneous administration of OIH.
The rate of renal excretion was measured in New Zealand albino male rabbits. They were anesthetized with ketamine and xylazine and placed on a gamma camera provided with digital storage. After injection of 0.5 to 1 mCi of the Tc-99m complex containing 0.5μCi of OIH, images were collected on tape for 45 minutes. At 35 minutes after injection, urine was expelled from the bladder and the percentage of injected dose contained in the expelled urine was determined. Accumulation of bladder radioactivity was monitored by placing a region of interest over the bladder. The drop in the radioactivity in the bladder after expelling the urine sample (50-80% of the bladder radioactivity) allowed calibration of the bladder time-activity curve in terms of percent injected dose.

renal tubular transport = conditions: mouse, in vivo
Protocol: A dose of 50 mg/kg of probenicid was given 10 minutes prior to injection of radiochemicals. OIH was injected simultaneously.
*Values are mean and S.E.M. percent injected dose at 10 min. post

[5] = rats, 90 minutes; for biliary excretion of radioactivity in the absence of renal function: renal pedicles ligated
Protocol: as §1
These determinations were made in male Sprague-Dawley rats. For blood studies the animals were anesthetized with sodium pentobarbital, a line was placed in a femoral vein for tracer injections and hydration, and another was placed in a carotid artery for blood sampling. About 20μCi (0.25 ml) each of OIH and Tc-99m complex under study were injected and 0.1 to 0.2 ml samples of blood were taken at 1, 2, 3, 4, 5, 6, 9, 12, 15, 20, 25, 30, 45, 60, 75, and 90 minutes after injection. Biliary excretion in the absence of renal function was determined by cannulating the common bile duct, ligating the renal pedicles, and collecting bile in 4-minute fractions for 90 minutes.

[6] = in vivo; cited from earlier work
[7] = 120 min post injection, 120 min
[8] = 10 min post injection, listed as Tc--CO2 DADS--B
[9] = 120 min post injection, listed as Tc--CO2 DADS--B
[10] = 5 min post injection, listed as Tc--CO2 --DADS--A
[11] = 5 min post injection, listed as component A
[12] = 10 min post injection, listed as Tc--CO2 --DADS--A
[13] = 30 min post injection, listed as Tc--CO2 --DADS--A
[14] = 120 min post injection, listed as Tc--CO2 --DADS--A
[15] = animals with normal renal function

Molecule: O=C(O)C1C(C(=O)O)[N]2C(=O)C[S][99Tc-]23(=[O])[S]CC(=O)[N]13 (single isomer, unassigned) [Tc--99m--2,3--(MERCAPTOACETAMIDO) SUCCINATE Component A] [Tc-99m chelate of 2,3-bis(mercaptoacetamido)succinic acid]
- Blood ([1]; 10 min post injection): 10.13
- Intestines ([1]; 10 min post injection): 2.16
- Kidneys ([1]; 10 min post injection): 3.41
- Liver ([1]; 10 min post injection): 5.80
- Stomach ([1]; 10 min post injection): 0.40
- Urine ([1]; 10 min post injection, 10 min): 32.32
- Blood ([1]; 120 min post injection): 0.44
- Intestines ([1]; 120 min post injection): 0.30
- Kidneys ([1]; 120 min post injection): 7.44
- Liver ([1]; 120 min post injection): 3.17
- Stomach ([1]; 120 min post injection): 0.03
- Urine [1, 7]: 77.73

Molecule: O=C(O)C1C[N]2C(=O)C[S][99Tc-]23(=[O])[S]CC(=O)[N]13 (single isomer, unassigned) [Tc-2,3-bis(mercaptoacetamido)propanoate-B] [Tc-99m-2,3-bis(mercaptoacetamido)propanoate]
- biliary excretion in words [2]: Negligible biliary excretion
- Blood [2, 8]: 3.64 percent injected dose
- Intestines [2, 8]: 1.00 percent injected dose
- Kidneys [2, 8]: 2.87 percent injected dose
- Liver [2, 8]: 14.83 percent injected dose
- Stomach [2, 8]: 0.13 percent injected dose
- Urine ([2]; 10 min post injection, listed as Tc--CO2 DADS--B, 10 min): 51.94 percent injected dose
- Blood [2, 9]: 0.14 percent injected dose
- Intestines [2, 9]: 0.21 percent injected dose
- Kidneys [2, 9]: 0.14 percent injected dose
- Liver [2, 9]: 3.71 percent injected dose
- Stomach [2, 9]: 0.02 percent injected dose
- Urine ([2]; 120 min post injection, listed as Tc--CO2 DADS--B, 120 min): 79.16 percent injected dose
- renal excretion / clearance in words ([2]; listed as Tc-2,3-bis(mercaptoacetamido)proponoate-B): more slowly cleared; also recorded: renal excretion was only slightly lower than OIH determined simultaneously
- blood disappearance in words [3]: faster than Tc-DTPA, was significantly slower than Tc-2,3-bis(mercaptoacetamido)propanoate-A
- blood disappearance in words ([3]; listed as component B): significantly faster than Tc-DTPA
- binding to plasma proteins (plasma proteins; 10 min): 87%
- binding to plasma proteins (plasma proteins; 0.5 h): 90%
- renal excretion (urine appearance) in words [4]: significantly lower at early times, but similar to component A and OIH at 35 minutes
- renal excretion (urine appearance) in words ([4]; listed as Component B): always faster than Tc-DTPA, but significantly slower than OIH or component A at early times

Molecule: O=C(O)C1C(C(=O)O)[N]2C(=O)C[S][99Tc-]23(=[O])[S]CC(=O)[N]13 (single isomer, unassigned) [Tc--99m--2,3--(MERCAPTOACETAMIDO) SUCCINATE Component B] [Tc-99m chelate of 2,3-bis(mercaptoacetamido)succinic acid]
- Blood ([1]; 10 min post injection): 16.21
- Intestines ([1]; 10 min post injection): 2.88
- Kidneys ([1]; 10 min post injection): 3.43
- Liver ([1]; 10 min post injection): 7.06
- Stomach ([1]; 10 min post injection): 0.53
- Urine ([1]; 10 min post injection, 10 min): 19.32
- Blood ([1]; 120 min post injection): 0.87
- Intestines ([1]; 120 min post injection): 8.85
- Kidneys ([1]; 120 min post injection): 0.65
- Liver ([1]; 120 min post injection): 2.33
- Stomach ([1]; 120 min post injection): 0.49
- Urine [1, 7]: 66.92

Molecule: O=C(O)C1C[N]2C(=O)C[S][99Tc-]23(=[O])[S]CC(=O)[N]13 (single isomer, unassigned) [Tc-2,3-bis(mercaptoacetamido)propanoate-A] [Tc-99m-2,3-bis(mercaptoacetamido)propanoate]
- Blood ([2]; 5 min post injection): 8.19 percent injected dose
- Intestines ([2]; 5 min post injection): 1.61 percent injected dose
- Stomach ([2]; 5 min post injection): 0.24 percent injected dose
- Urine ([2]; 5 min post injection, listed as Tc-2,3-bis(mercaptoacetmido)propanoate-A, 5 min): 45 percent injected dose
- Kidneys [2, 10]: 5.61 percent injected dose
- Liver [2, 10]: 7.81 percent injected dose
- Urine ([2]; 5 min post injection, listed as Tc--CO2 --DADS--A, 5 min): 45.52 percent injected dose
- Kidneys [2, 11]: 5.6 percent injected dose
- Liver [2, 11]: about 8 percent injected dose
- Blood [2, 12]: 3.10 percent injected dose
- Intestines [2, 12]: 0.82 percent injected dose
- Kidneys [2, 12]: 2.23 percent injected dose
- Liver [2, 12]: 4.26 percent injected dose
- Stomach [2, 12]: 0.11 percent injected dose
- Urine ([2]; 10 min post injection, listed as Tc--CO2 --DADS--A, 10 min): 67.97 percent injected dose
- Blood ([2]; 15 min post injection): 1.95 percent injected dose
- Intestines ([2]; 15 min post injection): 0.86 percent injected dose
- Kidneys ([2]; 15 min post injection): 1.30 percent injected dose
- Liver ([2]; 15 min post injection): 3.79 percent injected dose
- Stomach ([2]; 15 min post injection): 0.09 percent injected dose
- Urine ([2]; 15 min post injection): 75.08 percent injected dose
- Intestines ([2]; 30 min post injection): 1.05 percent injected dose
- Liver ([2]; 30 min post injection): 1.34 percent injected dose
- Stomach ([2]; 30 min post injection): 0.07 percent injected dose
- Urine ([2]; 30 min post injection): 80.82 percent injected dose
- Kidneys ([2]; 30 min post injection, listed as Tc-2,3-bis(mercaptoacetmido)propanoate-A): less than 1 percent injected dose
- Blood [2, 13]: 0.59 percent injected dose
- Kidneys [2, 13]: 0.51 percent injected dose
- Blood ([2]; 30 min post injection, listed as component A): 0.6 percent injected dose
- Blood [2, 14]: 0.21 percent injected dose
- Intestines [2, 14]: 1.46 percent injected dose
- Kidneys [2, 14]: 0.25 percent injected dose
- Liver [2, 14]: 0.78 percent injected dose
- Stomach [2, 14]: 0.04 percent injected dose
- Urine ([2]; 120 min post injection, listed as Tc--CO2 --DADS--A, 120 min): 86.57 percent injected dose
- Liver ([2]; 120 min post injection, listed as component A): less than 1 percent injected dose
- radioactivity seen in the intestine ([2]; at any time interval): ≤ 1.6%
- renal excretion / clearance in words [2]: slightly higher than or comparable to OIH in renal excretion
- biliary excretion with probenicid, in words (renal tubular transport): not increased significantly
- liver radioactivity with probenicid, in words (renal tubular transport): Biliary excretion was not increased significantly for component A, but liver radioactivity was
- Blood (renal tubular transport; 10 min): 3.37 percent injected dose
- Intestines (renal tubular transport; 10 min): 0.77 percent injected dose
- Kidneys (renal tubular transport; 10 min): 2.53 percent injected dose
- Liver (renal tubular transport; 10 min): 4.21 percent injected dose
- time at which radioactivity remaining in the blood was 2% [3]: 36 min
- time at which radioactivity remaining in the blood was 5% [3]: 16.5 min
- blood disappearance in words [3]: higher initial value resulted in comparable curve slopes
- blood disappearance in words ([3]; listed as component A): comparable to or slightly greater than that of OIH
- protein binding in words (plasma proteins): high degree of protein binding
- binding to plasma proteins (plasma proteins; 10 min): 93%
- binding to plasma proteins (plasma proteins; 0.5 h): 94%
- radioactivity in muscle ([5]; absence of renal function): 22%
- radioactivity in the blood ([5]; absence of renal function): 21%
- radioactivity in the kidneys ([5]; absence of renal function): 1%
- radioactivity in the liver ([5]; absence of renal function): 4%
- radioactivity in the spleen ([5]; absence of renal function): 0.1%
- radioactivity in the stomach ([5]; absence of renal function): 0.3%
- biliary excretion of radioactivity in the absence of renal function [5]: less than 3%
- biliary excretion of radioactivity in the absence of renal function ([5]; listed as Tc-99m-2,3-bis(mercaptoacetamido)propanoate-A): 3.1%
- rate of renal excretion in words [4, 15]: equivalent to OIH
- specificity for renal excretion [4, 15]: nearly complete
- renal excretion (urine appearance) in words [4]: slightly greater extent than OIH although differences were only significant at 35 minutes (p<0.05)
- renal excretion (urine appearance) in words ([4]; listed as Component A): slightly faster than OIH from 10 minutes onward

Molecule: Tc-99m diethylenetriaminepentaacetic acid [Tc-99m DTPA]
- extraction efficiency [6]: ≤ 20%
